Source: patent publication US20220281859A1, “HETEROCYCLIC COMPOUNDS AS KINASE INHIBITORS” (Nuvation Bio Inc., priority 2019, published 2022)

What was measured:
MCF-7 = test: Cancer cell proliferation assay as a single agent (cell viability); type: cell-based; conditions: Homo sapiens, MCF7; MCF-7 breast adenocarcinoma, Rb Positive, 144H treatment
Method: (§1) The effects of test compounds were studied in two breast cancer cell lines of different subtype. The cancer cells (Table 3) were harvested during the logarithmic growth period and counted. Cell concentrations were adjusted to the appropriate number with respective medium and 90 μL cell suspensions were added to 96-well plates. After cells were seeded, the plates were shaken gently to distribute cells evenly and incubated at 37° C., 5% CO2 on day 1.
(§2) Cells were treated with test compounds at 7 to 9 concentrations within a desired concentration range (e.g. 1.1 nM-10 μM) on day 2 by series diluting the test compound stock solution (10 mM in DMSO) with culture medium. Treatment duration was 144H (with a medium change at 72H) for both MCF-7 and DU4475 cells. Cell viability was assessed by Cell Titer-Glo® as recommended by Promega (Cat. No.: G7572), or by resazurin assay (Sigma Aldrich, Cat. No.: R7017) post treatment.
(§3) Cell viability data were plotted using GraphPad Prism (GraphPad Software, Inc., San Diego, Calif.). In addition, a nonlinear regression model with a sigmoidal dose response and variable slope within GraphPad Prism was used to calculate the IC50 value of individual test compounds.

DU4475 = test: as above; type: cell-based; conditions: Homo sapiens, DU-4475; DU4475 breast carcinoma, Rb Negative, 144H treatment
Method: as §1, §2, §3

CDK4 = target: T1, CDK4 (Homo sapiens, UniProt P11802); test: In vitro kinase inhibition IC50, luminescence (ADP Glo) with retinoblastoma as substrate; type: biochemical; conditions: ATP 25 μM, 2H at room temperature
T1 construct: purchased Invitrogen PR8064A
T1 sequence (P11802 whole entry): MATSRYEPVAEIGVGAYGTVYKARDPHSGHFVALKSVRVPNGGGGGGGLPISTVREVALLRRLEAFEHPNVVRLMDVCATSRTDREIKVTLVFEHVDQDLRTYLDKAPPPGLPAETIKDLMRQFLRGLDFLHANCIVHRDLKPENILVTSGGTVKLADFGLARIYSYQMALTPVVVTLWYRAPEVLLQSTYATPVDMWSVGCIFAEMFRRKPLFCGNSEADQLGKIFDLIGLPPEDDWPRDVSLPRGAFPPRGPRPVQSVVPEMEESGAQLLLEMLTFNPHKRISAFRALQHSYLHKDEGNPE
T1 sequence (P24385 whole entry partner): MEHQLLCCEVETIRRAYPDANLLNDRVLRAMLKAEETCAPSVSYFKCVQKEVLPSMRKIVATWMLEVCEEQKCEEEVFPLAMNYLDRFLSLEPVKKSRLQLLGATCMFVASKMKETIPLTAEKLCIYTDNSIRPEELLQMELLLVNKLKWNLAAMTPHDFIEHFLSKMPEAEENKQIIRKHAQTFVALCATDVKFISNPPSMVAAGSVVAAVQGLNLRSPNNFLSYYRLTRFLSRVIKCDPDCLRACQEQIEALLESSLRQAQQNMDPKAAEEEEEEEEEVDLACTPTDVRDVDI
Method: (§4) IC50 values of compounds against CDK4 and CDK6 were determined by luminescence using retinoblastoma as substrate. Kinase assays were performed in kinase buffer (#PV6135, Invitrogen, Life Technologies Grand Island, N.Y.) where total reaction volume was 30 μL/well in 96-well half area white plates (#3693, Costar). One microliter of 25×test compounds at specific concentrations (e.g., final concentration range: 0.1 nM-200 nM) was mixed with 10 μL of 2.5×kinase (5 nM, CDK4 #PR8064A and CDK6 #PR8422B, Invitrogen) solution and 14 μL of 4× mixed solution with retinoblastoma (1 μM, #12-439, EMD Millipore, Hayward, Calif.) and ATP (25 μM, #V7038, Promega, Madison, Wis.). The plates were covered and incubated for 2H at room temperature. At the end of incubation, 25 μL of stop solution—ADP Glo reagent (#V7002, Promega) was added. After incubation for 45 min at room temperature, 50 μL of detection reagent (##V7002, Promega) was added. Readings were taken at 15 min and 45 min incubation after detection reagent was added in a Synergy Neo Plate reader (BioTek, Winooski, Vt.) at single excitation of 340 nm and Dual emission at 495 nm and 520 nm respectively. The following equations were used in the CDK4 and CDK6 assay data analysis. Percent inhibition (100-% activity) was fitted to the “four-parameter logistic model” in XLfit for determination of IC50 values.
(§5) Percent conversion of enzyme=100−{(RLUNo Drug−No enzyme*100)/RLUNo drug+Enzyme} Equation 1
(§6) Percent conversion at each data point=100−{(RLUAverage(Drug+enzyme)*100)/RLUNo drug+Enzyme} Equation 2
(§7) Percent Inhibition=100*(% Conversioneach data point/% ConversionEnzyme) Equation 3

CDK6 = target: T2, CDK6 (Homo sapiens, UniProt Q00534); test: as above; type: biochemical; conditions: ATP 25 μM, 2H at room temperature
T2 construct: purchased Invitrogen PR8422B
T2 sequence (Q00534 whole entry): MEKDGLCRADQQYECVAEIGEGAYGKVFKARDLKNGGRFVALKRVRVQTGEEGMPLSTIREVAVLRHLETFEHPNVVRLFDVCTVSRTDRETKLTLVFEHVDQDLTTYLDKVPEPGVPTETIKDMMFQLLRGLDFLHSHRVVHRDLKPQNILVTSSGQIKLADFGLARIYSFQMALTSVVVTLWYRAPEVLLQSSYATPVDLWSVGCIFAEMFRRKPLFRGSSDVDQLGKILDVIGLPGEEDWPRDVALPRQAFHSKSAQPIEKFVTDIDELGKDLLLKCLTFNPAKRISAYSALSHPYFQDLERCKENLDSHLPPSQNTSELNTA
T2 sequence (P24385 whole entry partner): as the sequence (P24385 whole entry partner) above
Method: as §4, §5, §6, §7

CDK1 (cyclin B) = target: T3, CDK1 (cyclin B) (Homo sapiens, UniProt P06493); test: Z'-LYTE kinase inhibition IC50; type: biochemical; conditions: ATP 34 μM, 60 minutes at room temperature
T3 construct: purchased Invitrogen Life Technologies (assay run at the vendor)
T3 sequence (P06493 whole entry): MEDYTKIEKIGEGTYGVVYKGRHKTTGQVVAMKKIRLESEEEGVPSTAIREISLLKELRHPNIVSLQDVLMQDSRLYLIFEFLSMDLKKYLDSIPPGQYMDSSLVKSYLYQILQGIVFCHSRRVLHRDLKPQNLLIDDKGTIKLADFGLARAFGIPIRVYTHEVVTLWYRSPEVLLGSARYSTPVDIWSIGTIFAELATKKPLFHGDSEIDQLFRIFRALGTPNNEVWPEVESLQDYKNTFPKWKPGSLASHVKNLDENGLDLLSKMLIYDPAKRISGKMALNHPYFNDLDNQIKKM
T3 sequence (P14635 whole entry partner): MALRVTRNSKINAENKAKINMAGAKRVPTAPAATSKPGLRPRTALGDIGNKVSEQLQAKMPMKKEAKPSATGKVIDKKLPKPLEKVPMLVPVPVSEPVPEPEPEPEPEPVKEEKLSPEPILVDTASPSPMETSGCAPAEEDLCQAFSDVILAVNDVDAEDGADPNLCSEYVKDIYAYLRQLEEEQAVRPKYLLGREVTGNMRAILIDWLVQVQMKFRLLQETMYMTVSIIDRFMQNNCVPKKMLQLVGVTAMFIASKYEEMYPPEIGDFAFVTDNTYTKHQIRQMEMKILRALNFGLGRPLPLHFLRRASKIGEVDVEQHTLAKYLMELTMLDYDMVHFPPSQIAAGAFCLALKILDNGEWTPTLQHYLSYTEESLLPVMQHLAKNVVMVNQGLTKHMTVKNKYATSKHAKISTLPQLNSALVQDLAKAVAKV
Method: IC50 values of compounds against CDK1 (cyclin B) were determined by Z′-LYTE™. These screening assays were performed at Invitrogen Life Technologies (Grand Island, N.Y.) on a low volume NBS, black 384-well plate (#4514, Corning). 0.1 μL of 100× test compound in 100% DMSO (at specific solutions) was mixed with 2.4 μL of Kinase Buffer (50 mM HEPES pH 7.5, 0.01% BRIJ-35, 10 mM MgCl2, 1 mM EGTA), 5 μL of 2× Kinase (3.5-46.4 ng CDK1/cyclin B)/Peptide (2 μM Ser/Thr 18), and 2.5 μL of 4×ATP solution (34 μM). The plates were shaken for 30 seconds, and incubated for 60 minutes at room temperature. Development Reagent Solution (5 μL of 1:1024 dilution) was added to the plates followed with another 30-second plate shake, and the plates were further incubated at room temperature for one hour. The plates were read on fluorescence plate reader with Dual emission at 445 nm and 520 nm.
(§8) The following equations were used for Z′-LYTE™ Screening Assay Data Analysis. Percent inhibition (100-% activity) was fitted to the “four-parameter logistic model” in XLfit for determination of IC50 values.

CDK2 (cyclin A) = target: T4, CDK2 (cyclin A) (Homo sapiens, UniProt P24941); test: Z'-LYTE kinase inhibition IC50; type: biochemical; conditions: ATP 31 μM, 60 minutes at room temperature
T4 construct: purchased Invitrogen Life Technologies (assay run at the vendor)
Method: IC50 values of compounds against CDK2 (cyclin A) were determined by Z′-LYTE™. These screening assays were performed at Invitrogen Life Technologies (Grand Island, N.Y.) on a low volume NBS, black 384-well plate (#4514, Corning). 0.1 μL of 100× test compound in 100% DMSO (at specific solutions) was mixed with 2.4 μL of Kinase Buffer (50 mM HEPES pH 7.5, 0.01% BRIJ-35, 10 mM MgCl2, 1 mM EGTA), 5 μL of 2× Kinase (1.22-10.3 ng CDK2/cyclin A)/Peptide (2 μM Ser/Thr 12), and 2.5 μL of 4×ATP solution (31 μM). The plates were shaken for 30 seconds, and incubated for 60 minutes at room temperature. Development Reagent Solution (5 μL of 1:1024 dilution) was added to the plates followed with another 30-second plate shake and the plates were further incubated at room temperature for one hour. The plates were read on fluorescence plate reader with Dual emission at 445 nm and 520 nm.
as §8

| IC50 (MCF-7) [nM] | IC50 (DU4475) [nM] | IC50 (CDK4) [nM] | IC50 (CDK6) [nM] | IC50 (CDK1 (cyclin B)) [nM] | IC50 (CDK2 (cyclin A)) [nM] | SMILES |
| --- | --- | --- | --- | --- | --- | --- |
| 80 | 130 | > 190 | > 200 |  |  | CC(C)N1CCOc2c(F)cc(-c3nc(Nc4nc5cc(C6=CCNCC6)ccc5s4)ncc3F)cc21 [Compound 120, N-(5-fluoro-4-(8-fluoro-4-isopropyl-3,4-dihydro-2H-benzo[b][1,4]oxazin-6-yl)pyrimidin-2-yl)-5-(1,2,3,6-tetrahydropyridin-4-yl)benzo[d]thiazol-2-amine] |
| 3440 | 1490 | 15 | 24 | 7 | 15 | CC(C)N1CCOc2c(F)cc(-c3nc(Nc4ccc5[nH]nc(C6CCNCC6)c5c4)ncc3F)cc21 [Compound 59, N-(5-fluoro-4-(8-fluoro-4-isopropyl-3,4-dihydro-2H-benzo[b][1,4]oxazin-6-yl)pyrimidin-2-yl)-3-(piperidin-4-yl)-1H-indazol-5-amine] |
